Values after ≈ are worked out from the molar mass of the structure shown. Read-outs that look alike come from different tables or passages of the source.
Assays:
MDCK cell line = test: Cytotoxicity assay (Alamar blue), MDCK; type: cell-based; settings: read-out: cell lines EC50, MDCK
Procedure: (§1) The selectivity of these compounds for activity against prokaryotic cells over mammalian cells was analyzed by considering their cytotoxicity against Hela, heK-293, CaCo, and MDCK […] cell lines, allowing estimation of the therapeutic ratio [EC50Hela cell line/MIC(S. aureus)] (Table 3). […]
(§2) Screening of compounds were performed by Oxford Antibiotic Group, Austria. […]
(§3) For cytotoxicity testing, the synthesized compounds were tested against four different cell lines: HeLa, HEK 293, MDCK and CaCo. The cells were seeded in a 96 well plate and incubated until a confluence of 80% was achieved (under physiological conditions - 37°C, 5% CO2 and 95% humidity). The samples were tested by serial dilution in triplicates with starting concentration of 250 µg/mL. After 24 and 48 hours the survival of cells was evaluated by microscope and measured with Alamar blue. IC50 values were obtained from the calibration curves. […]

heK-293 cell line = test: Cytotoxicity assay (Alamar blue), heK-293; type: cell-based; settings: Homo sapiens, HEK293; read-out: cell lines EC50, heK-293
Procedure: as §1, §2, §3

CaCo cell line = test: Cytotoxicity assay (Alamar blue), CaCo; type: cell-based; settings: Homo sapiens; read-out: cell lines EC50, CaCo
Procedure: as §1, §2, §3

MRSA [1] = test: Broth dilution MIC against MRSA in the presence of serum albumin; type: cell-based; settings: Staphylococcus aureus, one-third the serum albumin concentration found in human blood
Procedure: (§4) As tetramic acids are well-known metal chelators,[1],[20] of interest was to investigate whether this loss of activity was due to metal chelation or plasma protein binding (PPB), specifically with human serum albumin (HSA).[17],[18] To answer this question, bicyclic tetramate 12a was tested against MRSA using a broth dilution assay, under standard conditions and with the addition of similar metal cations (Fe, Ca, Mg, and Zn) with concentration as that found in blood, respectively. […] Bicyclic tetramate 12a was also tested against MRSA using a broth dilution assay, under standard conditions but in the presence of one-third the serum albumin concentration as that found in human blood. […] A review has shown that PPB strongly correlates with increased hydrophobicity, and this might point to a problem with the tetramate class, which clearly depends upon hydrophobicity for their antibacterial activity, as noted above.[21]

Hela cell line = test: Cytotoxicity assay (Alamar blue), Hela; type: cell-based, human; settings: for EC50: Homo sapiens, HeLa, read-out: cell lines EC50, Hela
Procedure: as §1
(§5) Screening of compounds were performed by Oxford Antibiotic Group, Austria. For MIC determination by broth dilution assay, the samples were tested in a primary 96 well plates screening assay, in duplicate. The compounds were diluted in Mueller Hinton Broth (MHB) for bacterial screening to a stock solution of 1000 µg/mL, serial diluted and overlaid with a microbe solution in a concentration of 10^4 CFU/ml. The plates were incubated for […]
as §3

MRSA [2] = test: Broth dilution MIC against MRSA with added metal cations; type: cell-based; settings: Staphylococcus aureus, addition of Fe, Ca, Mg and Zn at concentration as found in blood
Procedure: as §4

[3] = tested on: methicillin-resistant Staphylococcus aureus (MRSA); test: MIC determination by broth dilution assay against MRSA; type: cell-based
Procedure: (§6) With access to these derivatives routinely available, an assessment of their antibacterial activity was made by measuring minimum inhibitory concentration (MIC) values (Table S6) against two example organisms, methicillin-resistant Staphylococcus aureus (MRSA) and E. coli. […] By contrast, a more polar substituent at the C7-position (pyran 12t) compromised the antibacterial activity (125 μg/mL). […] Compound 13b had the same activity as 12g at 1.00 μg/mL. Overall, increasing lipophilicity corresponded to higher potency against MRSA. […]
as §5, with “CFU/ml.” for “CFU/ml. The plates were incubated for”

E. coli = test: MIC determination by broth dilution assay against E. coli; type: cell-based
Procedure: as §6
as §5, with “CFU/ml.” for “CFU/ml. The plates were incubated for”

[4] = Staphylococcus aureus, MRSA, Table 3, read-out: MIC(S. aureus)
[5] = Staphylococcus aureus, MRSA, Table S5, against S. aureus, read-out: MIC
[6] = Staphylococcus aureus, MRSA, broth dilution, read-out: MIC against MRSA
[7] = Staphylococcus aureus, MRSA, Table S6, read-out: MIC

CC(C)(C)[C@@H]1O[C@H](c2ccccc2)[C@H]2C(O)=C(C(=O)NC34CC5CC(CC(C5)C3)C4)C(=O)N21 (mixture of isomers) [12a]
EC50 (MDCK cell line): 7.8 mg/L | EC50 (heK-293 cell line): 31.3 mg/L | EC50 (CaCo cell line): 15.6 mg/L | MIC (MRSA [1]): 7.81 mg/L | therapeutic ratio / selectivity for bacteria over the Hela cell line (Hela cell line; EC50 Hela cell line/MIC(S. aureus)): 26 fold | EC50 (Hela cell line): 7.8 mg/L | MIC (MRSA [2]): 0.24 mg/L | MIC [3, 4]: 0.3 mg/L | MIC [3, 5]: 0.25 mg/L | MIC ([3]; Staphylococcus aureus, MRSA, broth dilution assay, standard conditions (control of metal cation experiment), read-out: MIC against MRSA, standard conditions): 0.49 mg/L | MIC [3, 6]: 0.25 mg/L | MIC ([3]; Table S6): 0.25 mg/L

Cc1ccc([C@H]2O[C@@H](C(C)(C)C)N3C(=O)C(C(=O)NC45CC6CC(CC(C6)C4)C5)=C(O)[C@H]23)cc1 (mixture of isomers) [13a]
MIC [3, 7]: 3.9 mg/L | MIC [3, 6]: 3.9 mg/L | MIC ([3]; Table S5, against S. aureus): 3.9 mg/L

CC(C)(C)[C@@H]1O[C@H](c2ccc(F)cc2)[C@H]2C(O)=C(C(=O)NC34CC5CC(CC(C5)C3)C4)C(=O)N21 (mixture of isomers) [compound 20]
MIC [3, 7]: 1 mg/L | MIC [3, 6]: 1 mg/L | MIC ([3]; Table S5, against S. aureus): 1.0 mg/L

CC(C)(C)[C@@H]1O[C@H](c2ccc(Cl)cc2)[C@H]2C(O)=C(C(=O)NC34CC5CC(CC(C5)C3)C4)C(=O)N21 (mixture of isomers) [compound 21]
MIC [3, 7]: 7.8 mg/L | MIC [3, 6]: 7.8 mg/L | MIC ([3]; Table S5, against S. aureus): 7.8 mg/L

CC(C)(C)[C@@H]1O[C@H](c2ccc(Br)cc2)[C@H]2C(O)=C(C(=O)NC34CC5CC(CC(C5)C3)C4)C(=O)N21 (mixture of isomers) [compound 22]
MIC [3, 7]: 0.49 mg/L | MIC [3, 6]: 0.49 mg/L | MIC ([3]; Table S5, against S. aureus): 0.49 mg/L

CCOC(=O)C1=C(O)[C@@H]2[C@@H](c3ccccc3)O[C@@H](C(C)(C)C)N2C1=O (racemic) [10a]
antibacterial activity against E. coli (in words) (E. coli): no activity | antibacterial activity against MRSA (in words) [3]: no activity

CCOC(=O)C1=C(O)[C@@H]2[C@@H](c3ccc(F)cc3)O[C@@H](C(C)(C)C)N2C1=O (racemic) [10c]
EC50 (MDCK cell line): 62.5 mg/L (≈ 172 µM) | EC50 (heK-293 cell line): 62.5 mg/L (≈ 172 µM) | EC50 (CaCo cell line): 62.5 mg/L (≈ 172 µM) | EC50 (Hela cell line): 31.3 mg/L (≈ 86.1 µM) | MIC [3, 4]: 31.3 mg/L (≈ 86.1 µM) | MIC [3, 7]: 31.3 mg/L (≈ 86.1 µM)

CCOC(=O)C1=C(O)[C@@H]2[C@@H](c3ccc(Cl)cc3)O[C@@H](C(C)(C)C)N2C1=O (racemic) [10d]
EC50 (MDCK cell line): 62.5 mg/L (≈ 165 µM) | EC50 (heK-293 cell line): 31.3 mg/L (≈ 82.4 µM) | EC50 (CaCo cell line): 31.3 mg/L (≈ 82.4 µM) | EC50 (Hela cell line): 31.3 mg/L (≈ 82.4 µM) | MIC [3, 4]: 15.6 mg/L (≈ 41.1 µM) | MIC [3, 7]: 15.6 mg/L (≈ 41.1 µM)

CCOC(=O)C1=C(O)[C@@H]2[C@@H](c3ccc(Br)cc3)O[C@@H](C(C)(C)C)N2C1=O (racemic) [10e]
EC50 (MDCK cell line): 62.5 mg/L (≈ 147 µM) | EC50 (heK-293 cell line): 62.5 mg/L (≈ 147 µM) | EC50 (CaCo cell line): 62.5 mg/L (≈ 147 µM) | EC50 (Hela cell line): 31.3 mg/L (≈ 73.8 µM) | MIC [3, 4]: 15.6 mg/L (≈ 36.8 µM) | MIC [3, 7]: 15.6 mg/L (≈ 36.8 µM)

CC(C)(C)[C@@H]1O[C@H](c2ccccc2)[C@H]2C(O)=C(C(=O)Nc3ccccc3)C(=O)N21 (racemic) [12b]
MIC [3, 5]: 7.8 mg/L (≈ 19.9 µM) | MIC [3, 6]: 7.8 mg/L (≈ 19.9 µM) | MIC ([3]; Table S6): 7.8 mg/L (≈ 19.9 µM)

CC(C)(C)[C@@H]1O[C@H](c2ccccc2)[C@H]2C(O)=C(C(=O)Nc3ccc(Br)cc3)C(=O)N21 (racemic) [12c]
MIC [3, 5]: 3.9 mg/L (≈ 8.27 µM) | MIC [3, 6]: 3.9 mg/L (≈ 8.27 µM) | MIC ([3]; Table S6): 3.9 mg/L (≈ 8.27 µM)

CC(C)(C)[C@@H]1O[C@H](c2ccccc2)[C@H]2C(O)=C(C(=O)Nc3ccc([N+](=O)[O-])cc3)C(=O)N21 (racemic) [12d]
antibacterial activity against MRSA (in words) [3]: good bioactivity | MIC [3, 5]: 3.9 mg/L (≈ 8.92 µM) | MIC [3, 6]: 3.9 mg/L (≈ 8.92 µM) | MIC ([3]; Table S6): 3.9 mg/L (≈ 8.92 µM)

CC(C)(C)[C@@H]1O[C@H](c2ccccc2)[C@H]2C(O)=C(C(=O)Nc3ccc(C(F)(F)F)cc3)C(=O)N21 (racemic) [12e]
MIC [3, 5]: 1 mg/L (≈ 2.17 µM) | MIC [3, 6]: 1 mg/L (≈ 2.17 µM) | MIC ([3]; Table S6): 1.0 mg/L (≈ 2.17 µM)

Cc1cc(Cl)ccc1NC(=O)C1=C(O)[C@@H]2[C@@H](c3ccccc3)O[C@@H](C(C)(C)C)N2C1=O (racemic) [12g]
MIC [3, 5]: 1 mg/L (≈ 2.27 µM) | MIC [3, 6]: 1 mg/L (≈ 2.27 µM) | MIC ([3]; Table S6): 1.0 mg/L (≈ 2.27 µM)

Cc1ccc(NC(=O)C2=C(O)[C@@H]3[C@@H](c4ccccc4)O[C@@H](C(C)(C)C)N3C2=O)c(Cl)c1 (racemic) [12h]
MIC [3, 5]: 3.9 mg/L (≈ 8.85 µM) | MIC ([3]; Table S6): 3.9 mg/L (≈ 8.85 µM)
